Source: paper PMC7995547, “ω‐Imidazolyl‐alkyl derivatives as new preclinical drug candidates for treating non‐alcoholic steatohepatitis” (Physiological Reports, 2021)

Tests used:
[1] = system: HFD‐induced NASH rat model (liver); test: Area of connective tissue in the liver (Mallory‐Azan staining), NASH rat model; assay type: in vivo, Wistar rats
Protocol: (§1) Studies were done using Wistar rats of female sex by the Institute of Pharmacology and Biochemistry at Minsk. The animals were 80–90 days old and weighed 180–200 g. They had free access to a liquid Lieber‐DeCarli (LDC) diet (Lieber et al., 2004) and were housed under standard conditions meaning a 12‐h light/dark cycle at 22 ± 2°C and 55 ± 5% humidity.
(§2) Group 1 was designated as the first control group; it was fed a normal standard solid diet. Group 2, as the second control group, was fed a standard amount of fat as a part of the liquid “physiological,” non‐high fat LDC diet. All other groups received the liquid ‘disease‐causing’ LDC diet (Table 2), including a high content of unsaturated fatty acids.
(§3) Both LDC diets were in a liquid form as produced by ssniff‐Spezialdiäten GmbH, Soest (Germany). The feed was provided over the entire experimental period of 16 weeks; however, the corresponding experimental substances were only administered in the last four weeks (Figure 3).
(§4) The experimental substances I‐ol, I‐an, and UDCA were dissolved in a 0.8% aqueous HPMC gel to obtain the following concentrations: (1) I‐ol at 0.4, 4, and 40 mg/kg body weight (b.w.), (2) I‐an at 0.4, 4, and 40 mg/kg b.w., and (3) UDCA at 40 mg/kg b.w. The Group‐2 and −3 rats received only HPMC as placebo. Each test encompassed 6–8 rats that were put up in a separate cage. The rats were fed ad libitum, and their intake per cage was controlled daily. In order to ensure an exact daily reproducible dosage, the experimental substances or only HPMC was administered intragastrically via oral gavage. Basically, the drug therapy of a chronic disease is the more efficient the higher the adherence of the affected patients. This is generally higher with peroral administration than with any other form of application. At the end of the experiment, the animals were sacrificed under fasting conditions, by aorta dissection and exsanguination, after anesthetizing with an intraperitoneal injection of 5% pentobarbital solution.
Liver tissue sections were subject to the Mallory‐Azan (Heidenhain Azan) staining method for visualizing the connective tissues. This method was a modification of the original Mallory staining protocol, wherein azocarmin with a mixture of aniline blue and orange G was used. In this method, the collagen tissue and basophilic granules turn blue, the muscle tissue and acidophilic granules turn orange to red, and the cell nuclei and cytoplasm turn red. Elastic fibers remain unstained; however, they might turn yellow or pink. The proportion of positively stained liver tissue to the total area of the histological slide was determined quantitatively.

[2] = system: HFD‐induced NASH rat model (serum); test: Adipocytokines and glucose metabolism in serum, NASH rat model; assay type: in vivo, Wistar rats; settings: for Decrease in serum TNF‐α level compared to disease group / Decrease in serum leptin compared to disease group / Increase in serum adiponectin compared to disease group / Reduction of the effect of HFD on serum adiponectin / Reduction of the effect of HFD on serum leptin: average over doses (I‐ol, I‐an); for Reduction of the effect of HFD on serum adiponectin: UDCA 40 mg/kg b.w. (elevated the concentration by); for Reduction of the effect of HFD on serum leptin: UDCA 40 mg/kg b.w. (reduced leptin concentration); for Serum leptin above the reference value of control group 1: highest concentrations (40 mg/kg b.w.)
Protocol: as §1, §2, §3, §4
The concentrations of adiponectin and TNFα were measured using ELISA kits sold by BioCat GmbH (Heidelberg, Germany), whereas the one for determining leptin level was procured from BioVendor Laboratory Medicine Inc. (Brno, Czech Republic). Insulin concentration was determined using the radioimmunoassay kit RIO‐insulin‐PG‐J125 (IBOCH, Minsk, Belarus). Serum glucose level was determined based on the “Accu‐Check Active blood glucose” monitoring method developed by Roche‐Diagnostics.

[3] = system: CYP2E1; set-up: method as in Diesinger et al., 2020; settings: ref Diesinger et al., 2020, cited from earlier work; for Inhibition of CYP2E1 (in words): in vitro experiments
[4] = lowest concentration (0.4 mg/kg b.w.)

| Compound | Decrease in area of connective tissue in the liver compared to disease group [1, 4] [%] | Reduction of the effect of HFD on area of connective tissue in the liver [1, 4] [%] | Reduction of the effect of HFD on serum TNF‐α level ([2]; average over doses (I‐ol), UDCA 40 mg/kg b.w.) [%] | Decrease in serum TNF‐α level compared to disease group ([2]; UDCA 40 mg/kg b.w.) | Decrease in serum leptin compared to disease group ([2]; UDCA 40 mg/kg b.w.) [%] | Increase in serum adiponectin compared to disease group ([2]; UDCA 40 mg/kg b.w.) [%] | Reduction of the effect of HFD on serum adiponectin [2] [%] | Reduction of the effect of HFD on serum leptin [2] [%] | Serum adiponectin above the reference value of control group 1 ([2]; highest concentration (40 mg/kg b.w.)) [%] | Serum leptin above the reference value of control group 1 [2] [%] | Inhibition of CYP2E1 (in words) [3] | Binding strength to CYP2E1 (rank) [3] | Effect on area of connective tissue in the liver (in words) ([1]; compound overall) | Dose dependence of the effect on serum adiponectin ([2]; 0.4, 4, 40 mg/kg b.w.) | Dose dependence of the effect on serum leptin ([2]; 0.4, 4, 40 mg/kg b.w.) |
| --- | --- | --- | --- | --- | --- | --- | --- | --- | --- | --- | --- | --- | --- | --- | --- |
| OCCCCCCCCCCCCn1ccnc1 [I‐ol, 12‐imidazolyl‐1‐dodecanol] | 28 | 72 | 66 | 49% | 22 | 64 | 78 | 75 | 4 | 3 | strong inhibitors of CYP2E1 | highest affinity | – | – | – |
| CCCCCCCCCCCCn1ccnc1 [I‐an, 1‐imidazolyldodecane] | – | – | – | not significant | 18 | 31 | 38 | 62 | – | 1 | strong inhibitors of CYP2E1 | – | no therapeutic effect | weak, significant (p < 0.05) linear dose‐dependent effect | weak yet significant (p < 0.05) linear dose‐dependent effect |
